Laboratory results reported in paper PMC10891162 (Scientific Reports, 2024).

Legend:
β-Adrenergic receptor = experiment: cAMP detection in A375 cells, endogenous β-Adrenergic receptor; assay type: cell-based; details: Fig. 5C, n = 3; for Change of cAMP levels, β-Adrenergic antagonist: in the presence of 50 nM Isopreterenol; for Change of cAMP levels, β-Adrenergic agonist: 5 min treatment
Method: (§1) Media was removed from wells and 5µL of the diluted compounds were added to each well. […] Plates were mixed on an orbital shaker for 5 min at 400 rpm. […] 5µL of 2% trichloroacetic acid (TCA, Fisher Scientific SA9410-500) in water were added to wells to terminate reactions and lyse cells. […] Plates were mixed on an orbital shaker for 5 min at 400 rpm. […] Plates were mixed on an orbital shaker for 5 min at 400 rpm then incubated for 30 min at room temperature. […] Luminescence signal was measured on a GloMax Discover Microplate Reader within 15 min.
(§2) The assays were conducted by treatment of cells followed by lysis with 2% TCA, which also terminates the reactions. Cell lysates were then incubated with antibodies and tracer diluted in 0.3 M Tris buffer (pH 9.0; for neutralization) for 30 min after which time the detection reagent was added.

Adenosine receptor = experiment: cAMP detection in A375 cells, endogenous Adenosine receptor; assay type: cell-based; details: 1 h treatment, Fig. 5D, n = 3
Method: as §1, §2

[1] = system: Anti-cAMP primary antibody (GenScript A01509); experiment: cAMP Lumit immunoassay: cAMP standard curve, specificity and competition testing; assay type: binding; details: n = 2; for Luminescence signal drop on titration instead of cAMP (specificity): concentrations up to 10 µM, Fig. 2C,D; for Interference with cAMP standard curve: metabolite included at 10 µM in cAMP titration, Fig. 2E,F
PDE4A1A = target: T1, PDE4A1A (Homo sapiens, UniProt P27815); experiment: PDE4 inhibition study (cAMP Lumit detection); assay type: biochemical; details: 20 ng PDE4A1A per reaction, 10 µM cAMP, n = 2, Fig. 4
T1 construct: purchased BPS Biosciences 60040
T1 sequence (P27815 1-647 isoform P27815-4): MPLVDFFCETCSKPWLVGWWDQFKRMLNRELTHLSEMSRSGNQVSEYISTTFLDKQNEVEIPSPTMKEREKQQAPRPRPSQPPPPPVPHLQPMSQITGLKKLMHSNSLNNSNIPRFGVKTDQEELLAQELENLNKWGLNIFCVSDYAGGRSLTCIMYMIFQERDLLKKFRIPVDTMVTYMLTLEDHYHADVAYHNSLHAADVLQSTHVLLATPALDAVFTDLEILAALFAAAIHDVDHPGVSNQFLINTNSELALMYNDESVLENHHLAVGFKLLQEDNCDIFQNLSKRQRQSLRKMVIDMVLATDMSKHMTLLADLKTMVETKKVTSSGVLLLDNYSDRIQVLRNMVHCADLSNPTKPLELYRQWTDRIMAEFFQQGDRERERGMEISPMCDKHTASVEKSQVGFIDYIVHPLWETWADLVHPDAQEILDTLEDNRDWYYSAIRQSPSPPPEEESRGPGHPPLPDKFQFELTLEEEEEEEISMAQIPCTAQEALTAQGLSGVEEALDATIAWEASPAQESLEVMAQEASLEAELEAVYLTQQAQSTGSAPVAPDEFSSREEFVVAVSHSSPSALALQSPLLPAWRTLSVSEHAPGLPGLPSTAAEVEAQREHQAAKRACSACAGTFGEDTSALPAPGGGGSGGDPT
Method: Plates were mixed on an orbital shaker for 5 min at 400 rpm.

Dopamine D1 = Dopamine D1 (Homo sapiens, UniProt P21728); experiment: cAMP detection in HEK293 cells stably transfected with DRD1; assay type: cell-based; details: n = 3
Sequence of Dopamine D1 (P21728 whole entry): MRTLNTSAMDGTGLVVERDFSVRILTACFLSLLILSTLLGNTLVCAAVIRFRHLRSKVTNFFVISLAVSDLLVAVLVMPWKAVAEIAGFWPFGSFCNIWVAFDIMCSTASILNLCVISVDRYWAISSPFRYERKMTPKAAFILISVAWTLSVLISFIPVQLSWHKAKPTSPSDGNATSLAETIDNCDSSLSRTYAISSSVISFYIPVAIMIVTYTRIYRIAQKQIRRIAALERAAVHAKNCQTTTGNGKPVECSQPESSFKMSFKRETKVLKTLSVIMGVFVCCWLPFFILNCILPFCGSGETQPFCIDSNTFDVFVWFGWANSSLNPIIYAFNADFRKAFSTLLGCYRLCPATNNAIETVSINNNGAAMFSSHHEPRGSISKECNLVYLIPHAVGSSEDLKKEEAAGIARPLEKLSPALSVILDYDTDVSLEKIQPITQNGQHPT
Method: as §1, §2

HEK293 cells = experiment: cAMP detection in HEK293 cells treated with Forskolin; assay type: cell-based; details: 30 min treatment, Fig. 5D, n = 3
Method: as §1, §2

SMILES: C=CCc1ccccc1OCC(O)CNC(C)C (stereo not drawn) [Alprenolol]
- Change of cAMP levels, β-Adrenergic antagonist (β-Adrenergic receptor): cAMP levels reduction

SMILES: CC(C)NCC(O)c1ccc(O)c(O)c1 (stereo not drawn) [Isopreterenol, Isoproterenol]
- Change of cAMP levels, β-Adrenergic agonist (β-Adrenergic receptor): cAMP levels increase

SMILES: CCNC(=O)[C@H]1O[C@@H](n2cnc3c(N)ncnc32)[C@H](O)[C@@H]1O [NECA]
- Change of cAMP levels, Adenosine receptor agonist (Adenosine receptor): cAMP levels increase

SMILES: CC(C)NCC(O)COc1cccc2ccccc12 (stereo not drawn) [Propranolol]
- Change of cAMP levels, β-Adrenergic antagonist (β-Adrenergic receptor): cAMP levels reduction

SMILES: Nc1nc2c(ncn2[C@@H]2O[C@@H]3COP(=O)(O)O[C@H]3[C@H]2O)c(=O)[nH]1 [cGMP, cyclic guanosine monophosphate]
- Luminescence signal drop on titration instead of cAMP (specificity) [1]: None of the tested metabolites resulted in a significant luminescence signal drop
- Interference with cAMP standard curve [1]: no effect

SMILES: Nc1nc2c(ncn2[C@@H]2O[C@@H]3COP(=O)(O)O[C@H]4[C@@H](O)[C@H](n5cnc6c(N)ncnc65)O[C@@H]4COP(=O)(O)O[C@H]3[C@H]2O)c(=O)[nH]1 [3′3′-cGAMP, 3′3′-cyclic guanosine monophosphate-adenosine monophosphate]
- Luminescence signal drop on titration instead of cAMP (specificity) [1]: None of the tested metabolites resulted in a significant luminescence signal drop
- Interference with cAMP standard curve [1]: no effect

SMILES: Nc1nc2c(ncn2[C@@H]2O[C@@H]3COP(=O)(O)O[C@H]4[C@@H](O)[C@H](n5cnc6c(N)ncnc65)O[C@@H]4COP(=O)(O)O[C@@H]2[C@@H]3O)c(=O)[nH]1 [2′3′-cGAMP, 2′3′-cyclic guanosine monophosphate-adenosine monophosphate]
- Luminescence signal drop on titration instead of cAMP (specificity) [1]: None of the tested metabolites resulted in a significant luminescence signal drop
- Interference with cAMP standard curve [1]: no effect

SMILES: CCOc1ccccc1C(=O)NCc1coc(-c2ccc(OC(F)F)c(OC(C)C)c2)n1 [Difamilast]
- IC50 (PDE4A1A): 7.3 nM

SMILES: CNC[C@H](O)c1ccc(O)c(O)c1 [Epinephrine]
- Change of cAMP levels, β-Adrenergic agonist (β-Adrenergic receptor): cAMP levels increase

SMILES: CN1CCc2cc(Cl)c(O)cc2[C@@H](c2ccccc2)C1 [SCH23390]
- Change of cAMP levels, DRD1 antagonist (Dopamine D1; HEK293 stably transfected with DRD1, in the presence of 100 nM SKF38393, Fig. 5A): cAMP levels reduction

SMILES: Oc1cc2c(cc1O)C(c1ccccc1)CNCC2 (stereo not drawn) [SKF38393]
- Change of cAMP levels, DRD1 agonist (Dopamine D1; HEK293 stably transfected with DRD1, 1 h treatment, Fig. 5A): cAMP levels increase

SMILES: C=C[C@@]1(C)CC(=O)[C@]2(O)[C@@]3(C)[C@@H](O)CCC(C)(C)[C@@H]3[C@H](O)[C@H](OC(C)=O)[C@@]2(C)O1 [Forskolin]
- Change of cAMP levels (HEK293 cells): cAMP levels increase
